Assay results published in patent US20210087206A1, “MACROCYCLIC KINASE INHIBITORS AND THEIR USE” (TURNING POINT THERAPEUTICS, INC., priority 2017, published 2021).

Key:
Experiment in all cases: Cell proliferation assay (CellTiter-Glo)
Type in all cases: cell-based
[1] = system: KG-1 cell (OP2-FGFR1); settings: Homo sapiens, anti-cell proliferation, 72 hours
Protocol: (§1) Cell Lines and Cell Culture:
(§2) Colorectal cell line KM 12 (harboring endogenous TPM3-TRKA fusion gene) was obtained from NCI. Acute myelogenous cell line KG-1 (harboring endogenous OP2-FGFR1 fusion gene) were purchased from ATCC.
(§3) Cell Proliferation Assays:
(§4) Two thousand cells per well were seeded in 384 well white plate for 24 hrs, and then treated with compounds for 72 hours (37° C., 5% CO2). Cell proliferation was measured using CellTiter-Glo luciferase-based ATP detection assay (Promega) following the manufactures's protocol. IC50 determinations were performed using GraphPad Prism software (GraphPad, Inc., San Diego, Calif.).

[2] = system: KM12 (TPM3-TRKA); settings: Homo sapiens, anti-cell proliferation, 72 hours
Protocol: as §1, §2, §3, §4

[3] = molecular target: T1, BaF3 EML4-ALK (Homo sapiens, UniProt Q9UM73); settings: anti-cell proliferation, 72 hours
T1 construct: The EML4-ALK gene (variant 1) was synthesized at GenScript and cloned into pCDH-CMV-MCS-EF1-Puro plasmid (System Biosciences, Inc); fused on or other part: EML4 N-terminal part (variant 1: exons 1-13, with the coiled-coil that oligomerises the fusion) fused to the intracellular part of ALK, which contains the kinase domain; Q9HC35 (Echinoderm microtubule-associated protein-like 4)
Protocol: Cloning and Ba/F3 or NIH3T3 Stable Cell Line Creation
The EML4-ALK gene (variant 1) was synthesized at GenScript and cloned into pCDH-CMV-MCS-EF1-Puro plasmid (System Biosciences, Inc). Ba/F3-EML4-ALK wild type were generated by transducing Ba/F3 cells with lentivirus containing EML4-ALK wide type. Stable cell lines were selected by puromycin treatment, followed by IL-3 withdrawal. Briefly, 5×10^6 Ba/F3 cells were transduced with lentivirus supernatant in the presence of 8 μg/mL protamine sulfate. The transduced cells were subsequently selected with 1 μg/mL puromycin in the presence of IL3-containing medium RPMI1640, plus 10% FBS. After 10-12 days of selection, the surviving cells were further selected for IL3 independent growth.
as §3, §4

T1 sequence (Q9UM73 whole entry, stated change not applied, the tested form may be a part): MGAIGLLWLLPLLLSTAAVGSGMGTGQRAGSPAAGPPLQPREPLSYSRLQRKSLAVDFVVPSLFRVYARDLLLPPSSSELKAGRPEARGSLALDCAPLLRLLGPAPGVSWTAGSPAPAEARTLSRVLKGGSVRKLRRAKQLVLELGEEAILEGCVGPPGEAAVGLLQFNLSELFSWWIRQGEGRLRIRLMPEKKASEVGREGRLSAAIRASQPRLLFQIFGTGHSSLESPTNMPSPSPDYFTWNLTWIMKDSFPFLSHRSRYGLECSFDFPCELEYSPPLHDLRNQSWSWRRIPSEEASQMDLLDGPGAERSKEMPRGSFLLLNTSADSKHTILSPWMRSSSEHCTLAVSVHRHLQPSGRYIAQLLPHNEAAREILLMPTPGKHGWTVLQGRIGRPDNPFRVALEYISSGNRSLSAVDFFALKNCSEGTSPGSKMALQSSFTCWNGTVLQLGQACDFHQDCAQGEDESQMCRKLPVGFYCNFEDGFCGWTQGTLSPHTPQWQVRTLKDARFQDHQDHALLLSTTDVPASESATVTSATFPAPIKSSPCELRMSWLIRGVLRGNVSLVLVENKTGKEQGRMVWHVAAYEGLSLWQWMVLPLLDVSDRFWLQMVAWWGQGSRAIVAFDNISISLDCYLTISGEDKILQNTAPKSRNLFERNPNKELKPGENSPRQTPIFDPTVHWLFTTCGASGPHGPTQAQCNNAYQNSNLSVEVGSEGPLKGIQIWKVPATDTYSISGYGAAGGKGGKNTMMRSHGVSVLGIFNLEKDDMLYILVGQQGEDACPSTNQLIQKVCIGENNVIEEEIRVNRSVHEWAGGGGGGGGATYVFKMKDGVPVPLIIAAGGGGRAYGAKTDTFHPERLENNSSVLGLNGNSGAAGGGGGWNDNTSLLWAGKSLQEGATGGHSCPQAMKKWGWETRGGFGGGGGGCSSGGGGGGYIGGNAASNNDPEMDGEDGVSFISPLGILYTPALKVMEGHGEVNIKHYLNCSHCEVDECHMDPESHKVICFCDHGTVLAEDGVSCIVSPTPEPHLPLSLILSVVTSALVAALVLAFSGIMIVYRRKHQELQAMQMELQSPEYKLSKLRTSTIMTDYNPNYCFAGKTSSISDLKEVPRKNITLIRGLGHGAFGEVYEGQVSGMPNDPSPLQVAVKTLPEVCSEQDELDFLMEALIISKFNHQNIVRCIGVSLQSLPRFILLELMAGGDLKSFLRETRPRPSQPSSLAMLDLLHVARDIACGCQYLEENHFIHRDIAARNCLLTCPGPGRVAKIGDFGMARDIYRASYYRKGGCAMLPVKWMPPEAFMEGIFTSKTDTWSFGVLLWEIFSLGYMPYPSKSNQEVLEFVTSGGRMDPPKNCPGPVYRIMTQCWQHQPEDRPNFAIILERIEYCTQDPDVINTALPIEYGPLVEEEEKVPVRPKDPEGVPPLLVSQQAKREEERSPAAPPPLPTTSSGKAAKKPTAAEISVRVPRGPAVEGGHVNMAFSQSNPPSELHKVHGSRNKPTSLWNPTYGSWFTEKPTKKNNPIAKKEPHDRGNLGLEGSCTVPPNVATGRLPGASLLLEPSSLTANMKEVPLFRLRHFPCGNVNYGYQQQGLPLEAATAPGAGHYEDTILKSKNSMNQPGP

IC50 [3] [nM]	Compound	IC50 [1] [nM]	IC50 [2] [nM]
1930	C[C@@H]1CCOc2cn3ncc4c3nc2N1Cc1c(ccc(F)c1Cl)O[C@@H](C)CNC4=O [Compound 23, (5R,13S)-8-chloro-9-fluoro-5,13-dimethyl-4,5,14,15-tetrahydro-3H,7H-19,1-(metheno)[1,4]-oxazepino[3,4-i]pyrazolo[4,3-f] [1,4,8,10]benzoxatriazacyclo-tridecin-16(13H)-one]	9510	< 0.2
89.1	C[C@@H]1COc2ncc(F)cc2CN2c3nc4c(cnn4cc3OC[C@H]2C2CC2)C(=O)N1 [Compound 25, (4R,13R)-4-cyclopropyl-8-fluoro-13-methyl-3,4,13,14-tetrahydro-6H-18,1-(metheno)[1,4]oxazino[3,4-i]pyrazolo[4,3-f]pyrido[3,2-l][1,4,8,10]oxatriazacyclotridecin-15(12H)-one]	131	< 0.2
692	C[C@H]1CNC(=O)c2cnn3cc4c(nc23)N(Cc2cc(F)cnc2O1)[C@H](C1CC1)CO4 [Compound 26, (4R,12S)-4-cyclopropyl-8-fluoro-12-methyl-3,4,13,14-tetrahydro-6H-18,1-(metheno)[1,4]oxazino-[3,4-i]pyrazolo[4,3-f]pyrido-[3,2-l]-[1,4,8,10]oxatriazacyclo-tridecin-15(12H)-one]	694	< 0.2
604	C[C@H]1CNC(=O)c2cnn3cc4c(nc23)N(Cc2cc(F)cnc2O1)C1(CC1)CO4 [Compound 27, (12′S)-8′-fluoro-12′-methyl-3′H,6′H,12′H,13′H,14′H,15′H-spiro[cyclopropane-1,4′-[2,11]-dioxa[5,10,14,17,18,19]hexaaza-[18,1](metheno)[1,4]oxazino[3,4-i]pyrazolo[4,3-f]pyrido[3,2-l] [1,4,8,10]oxatriazacyclotridecin]-15′-one]	3570	< 0.2
180	C[C@@H]1COc2ncc(F)cc2CN2c3nc4c(cnn4cc3OCC23CC3)C(=O)N1 [Compound 28, (13′R)-8′-fluoro-13′-methyl-3′H,6′H,12′H,14′H,15′H-spiro-[cyclopropane-1,4′-[2,11]dioxa-[5,10,14,17,18,19]hexaaza[18,1]-(metheno)[1,4]oxazino[3,4-i]-pyrazolo[4,3-f]pyrido[3,2-l] [1,4,8,10]oxatriazacyclotridecin]-15′-one]	786	< 0.2
826	C[C@@H]1COc2cn3ncc4c3nc2N(Cc2cc(F)cnc2OC[C@@H](C)NC4=O)C1 [Compound 29, (4S,14R)-9-fluoro-4,14-dimethyl-4,5,14,15-tetrahydro-3H,7H-19,1-(metheno)[1,4]oxazepino[3,4-i]-pyrazolo[4,3-f]pyrido[3,2-l] [1,4,8,10]oxatriazacyclotridecin-16(13H)-one]	130	9.6
7380	C[C@@H]1COc2cn3ncc4c3nc2N(Cc2cc(F)cnc2O[C@@H](C)CNC4=O)C1 [Compound 30, (4S,13S)-9-fluoro-4,13-dimethyl-4,5,14,15-tetrahydro-3H,7H-19,1-(metheno)[1,4]oxazepino[3,4-i]-pyrazolo[4,3-f]pyrido[3,2-l] [1,4,8,10]oxatriazacyclotridecin-16(13H)-one]	536	42
1330	C[C@@H]1COc2cn3ncc4c3nc2N(Cc2cc(F)ccc2OC[C@@H](C)NC4=O)C1 [Compound 31, (4S,14R)-9-fluoro-4,14-dimethyl-4,5,14,15-tetrahydro-3H,7H-19,1-(metheno)[1,4]oxazepino[3,4-i]-pyrazolo[4,3-f][1,4,8,10]benzo-xatriazacyclotridecin-16(13H)-one]	779	< 0.2
74.6	C[C@@H]1CCOc2ncc(F)cc2CN2c3nc4c(cnn4cc3OC[C@H]2C)C(=O)N1 [Compound 32, (6R,16R)-12-fluoro-6,16-dimethyl-5,6,7,8,16,17-hexahydro-4H,14H-1,19-(metheno)[1,4]oxazino[4,3-e]pyrazolo[3,4-h]pyrido[2,3-b] [1,5,7,11]oxatriazacyclotetradecin-4-one]	137	< 0.2
